How the values were obtained:
[1] = system: extensive plaque psoriasis; assay: Case report: treatment of psoriasis with Clofazimine, Rifampicin, Tinidazole, Enbrel (Example 4); type: in vivo, human
Protocol: It was at this time that antibiotics were added to the etanercept (Enbrel™).

psoriasis of the scalp = assay: Case report: treatment of psoriasis of the scalp in an adult with OCD using Metronidazole (Example 1); type: in vivo, human
Text: A patient with Obsessive-Compulsive Personality Disorder (OCD) commenced treatment in April 2016 with two non-absorbable antibiotics (vancomycin and rifaximin), together with the absorbable Metronidazole. The aim was to suppress their gut bacteria to reduce the OCD.

## CN(Cc1cnc2nc(N)nc(N)c2n1)c1ccc(C(=O)N[C@@H](CCC(=O)O)C(=O)O)cc1 [Methotrexate]
[1]; person, steroid-dependent extensive psoriasis
  adverse effects: unacceptable adverse effects

## Cc1ncc([N+](=O)[O-])n1CCO [Metronidazole]
Psoriasis of the scalp; patient, Metronidazole given with non-absorbable vancomycin and rifaximin from April 2016, by November of 2016
  psoriasis of the scalp: marked suppression of the psoriasis of the scalp
Psoriasis of the scalp; same patient, by February of 2017
  psoriasis of the scalp: very little psoriasis left on the scalp

## etanercept
[1]; in spite of many months of injections, before antibiotics were added
  response of psoriasis on continued treatment: the response stalled
[1]; person, before antibiotics were added
  response of psoriasis: reduction of the surface area of their body covered by psoriasis plaque
